Measurements as given in patent US4100346A, “Certain 7(o-amino-methyl- or methylaminomethylphenyl- or cyclohexadienyl- or thienylacetamide)-3[1-carboxymethyl-(or ethyl- or propyl-)-tetrazol-5-ylthiomethyl]-3-cephem-4-carboxylic acids” (Bristol-Myers Company, priority 1976, dated 1978).
Converted amounts (≈) assume the structure as drawn. “And” between values parts separate entries of the source, which are not always exact repeats. Identical values can stand only once.

Test system: Mycobacterium tuberculosis
Format: cell-based

Row | Structure (SMILES) | Minimum inhibitory concentration
1 | Cc1nnc(SCC2=C(C(=O)O)N3C(=O)[C@@H](NC(=O)Cn4cnnn4)[C@H]3SC2)s1 [Cefazolin] | 125 µg/mL and 250 µg/mL
2 | O=C(Cc1cccs1)N[C@@H]1C(=O)N2C(C(=O)[O-])=C(C[n+]3ccccc3)CS[C@H]12 [Cephaloridine] | 63 µg/mL (≈ 152 µM)
